Assay results as given in BindingDB's records for doi:10.1016/0960-894X(95)00037-T (1995).

Legend:
B2 bradykinin receptor [1] = biological target: T1, B2 bradykinin receptor (Homo sapiens, UniProt P30411); test: (§1) Tested for binding affinity against human IMR-90 Bradykinin receptor B2
T1 sequence (P30411 whole entry): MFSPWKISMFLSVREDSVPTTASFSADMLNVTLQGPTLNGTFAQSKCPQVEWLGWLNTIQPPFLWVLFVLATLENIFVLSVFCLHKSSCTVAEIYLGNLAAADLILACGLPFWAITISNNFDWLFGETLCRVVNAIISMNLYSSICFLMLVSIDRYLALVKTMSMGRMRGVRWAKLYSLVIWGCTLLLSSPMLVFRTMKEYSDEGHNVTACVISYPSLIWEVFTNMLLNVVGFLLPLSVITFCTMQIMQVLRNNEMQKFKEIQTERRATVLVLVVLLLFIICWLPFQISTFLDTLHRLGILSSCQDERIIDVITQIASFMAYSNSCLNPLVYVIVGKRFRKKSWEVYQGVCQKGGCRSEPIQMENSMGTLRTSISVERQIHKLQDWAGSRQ

B2 bradykinin receptor [2] = biological target: T1, B2 bradykinin receptor; test: ChEBML_40431; source text: as §1

`CCCC[P+](CCCC)(CCCC)Cc1ccc(NC(=O)C2Cc3ccccc3CN2C(=O)[C@H](CCc2ccccc2)N/C(=N/C2CCCCC2)NC2CCCCC2)cc1` (stereo partly drawn) [tributyl[(4-{2-[(2S)-2-{[(1E)-(cyclohexylamino)(cyclohexyliminiumyl)methyl]amino}-4-phenylbutanoyl]-1,2,3,4-tetrahydroisoquinoline-3-amido}phenyl)methyl]phosphanium dichloride] showed a Ki (B2 bradykinin receptor [1]) of 1000 nM and a Ki (B2 bradykinin receptor [2]) of 1000 nM.
